From US6384047B1, “Benzonaphthyridine” (Byk Gulden Lomberg Chemische Fabrik GmbH, priority 1997, dated 2002)

What was measured:
[1] = target: T1, PDE3 (cGMP-inhibited), homogenates of human blood platelets (Homo sapiens, UniProt Q14432); test: Inhibition of the PDE isoenzymes: PDE3; type: biochemical; conditions: cAMP as substrate, read-out: PDE3 inhibitory concentration as -log IC50 (converted)
T1 construct: were investigated in homogenates of human blood platelets; from tissue; host or cells: human blood platelets (homogenate)
Experimental: (§1) The PDE activity was determined according to Thompson et al. (1) with a few modifications (2). The test samples contained 40 mM tris HCl (pH 7.4), 5 mM MgCl2, 0.5 μM cAMP or cGMP, [^3H] cAMP or [^3H]cGMP (about 50,000 cpm/sample), the PDE isoenzyme-specific additives described in greater detail below, the given concentrations of inhibitor and an aliquot of the enzyme solution in a total sample volume of […]. […] After preincubation at 37° C. for 5 minutes, the reaction was started by addition of the substrate (cAMP or cGMP). The samples were incubated at 37° C. for a further 15 min. The reaction was stopped by addition of 50 μl of 0.2N HCl. After cooling on ice for 10 minutes and addition of 25 μg of 5′-nucleotidase (snake venom from Crotalus atrox), incubation was carried out again for 10 min. at 37° C. and the samples were then applied to QAE Sephadex A-25 columns. The columns were eluted with 2 ml of 30 mM ammonium formate (pH 6.0). The radioactivity of the eluate was measured and corrected by the corresponding blank values. The proportion of hydrolyzed nucleotide in no case exceeded 20% of the original substrate concentration.
(§2) PDE3 (cGMP-inhibited) and PDE5 (cGMP-specific) were investigated in homogenates of human blood platelets [Schudt et al. (4)] using cAMP or cGMP as a substrate.
(§3) The IC50 values were determined from the concentration inhibition curves by nonlinear regression using the program GraphPad InPlot™ (GraphPad Software Inc., Philadelphia, USA).

[2] = target: T2, PDE2 (cGMP-stimulated) from rats' hearts (Rattus norvegicus, UniProt Q01062); test: Inhibition of the PDE isoenzymes: PDE2; type: biochemical; conditions: in presence of cGMP (5 μM), cAMP as substrate, read-out: PDE2 inhibitory concentration as -log IC50 (converted)
T2 construct: PDE2 (cGMP-stimulated) from rats' hearts was purified chromatographically; from tissue; host or cells: rat heart
T2 sequence (Q01062 1-928): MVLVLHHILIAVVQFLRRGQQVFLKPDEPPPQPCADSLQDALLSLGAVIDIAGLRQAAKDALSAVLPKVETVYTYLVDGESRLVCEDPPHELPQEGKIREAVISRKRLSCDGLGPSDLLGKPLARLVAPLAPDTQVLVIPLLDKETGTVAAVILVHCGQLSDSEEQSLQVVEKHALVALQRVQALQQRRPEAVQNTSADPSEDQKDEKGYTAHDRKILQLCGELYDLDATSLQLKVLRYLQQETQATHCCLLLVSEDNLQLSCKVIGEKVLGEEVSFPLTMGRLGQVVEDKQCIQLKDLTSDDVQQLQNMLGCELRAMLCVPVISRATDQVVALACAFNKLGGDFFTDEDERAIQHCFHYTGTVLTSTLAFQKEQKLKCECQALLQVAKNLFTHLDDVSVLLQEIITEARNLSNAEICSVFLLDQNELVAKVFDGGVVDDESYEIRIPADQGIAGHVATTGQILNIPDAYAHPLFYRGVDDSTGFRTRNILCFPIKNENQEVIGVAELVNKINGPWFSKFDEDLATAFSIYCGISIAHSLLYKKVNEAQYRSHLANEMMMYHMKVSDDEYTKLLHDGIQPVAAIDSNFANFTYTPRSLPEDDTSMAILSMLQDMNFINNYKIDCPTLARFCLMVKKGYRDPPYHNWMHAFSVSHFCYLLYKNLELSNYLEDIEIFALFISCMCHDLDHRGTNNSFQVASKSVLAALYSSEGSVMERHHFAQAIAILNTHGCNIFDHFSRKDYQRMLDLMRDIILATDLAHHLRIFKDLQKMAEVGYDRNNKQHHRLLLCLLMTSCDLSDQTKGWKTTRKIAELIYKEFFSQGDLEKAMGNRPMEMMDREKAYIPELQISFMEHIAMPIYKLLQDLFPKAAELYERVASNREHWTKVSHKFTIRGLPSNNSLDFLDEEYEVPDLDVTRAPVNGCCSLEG
Experimental: as §1
PDE2 (cGMP-stimulated) from rats' hearts was purified chromatographically [Schudt et al. (4)] and investigated in the presence of cGMP (5 μM) using cAMP as a substrate.
as §3

[3] = target: T3, PDE5 (cGMP-specific), homogenates of human blood platelets (Homo sapiens, UniProt O76074); test: Inhibition of the PDE isoenzymes: PDE5; type: biochemical; conditions: cGMP as substrate, read-out: PDE5 inhibitory concentration as -log IC50 (converted)
T3 construct: were investigated in homogenates of human blood platelets; from tissue; host or cells: human blood platelets (homogenate)
Experimental: as §1, §2, §3

[4] = target: PDE1 (Ca2+/calmodulin-dependent) from bovine brain; test: Inhibition of the PDE isoenzymes: PDE1; type: biochemical; conditions: Ca2+ (1 mM) and calmodulin (100 nM), cGMP as substrate
Experimental: as §1
PDE1 (Ca^2+/calmodulin-dependent) from bovine brain: the inhibition of this isoenzyme was investigated in the presence of Ca^2+ (1 mM) and calmodulin (100 nM) using cGMP as a substrate (3).
as §3

[5] = target: PDE4 (cAMP-specific), cytosol of human polymorphonuclear leucocytes (PMNL); test: Inhibition of the PDE isoenzymes: PDE4; type: biochemical; conditions: cAMP as substrate, motapizone (1 μM) present
Experimental: as §1
PDE4 (cAMP-specific) was investigated in the cytosol of human polymorphonuclear leucocytes (PMNL) [isolated from leucocyte concentrates, see Schudt et al. (5)] using cAMP as a substrate. The PDE3 inhibitor motapizone (1 μM) was used in order to suppress the PDE3 activity emanating from contaminating blood platelets.
as §3

[6] = test system: human PMNL; test: Inhibition of the formation of reactive oxygen species (FMLP-stimulated chemiluminescence) in human PMNL; type: cell-based; conditions: 0.05 h, FMLP 100 nM, luminol-potentiated chemiluminescence, AUC over 3 min, read-out: Inhibition of the FMLP-stimulated chemiluminiscence in human PMNL in vitro, inhibitory concentration as -log IC50 (converted)
Description: In the investigation of PDE4 inhibition at the cellular level, the activation of inflammatory cells has particular importance. An example which may be mentioned is the FMLP (N-formylmethionylleucylphenylalanine)-induced superoxide production of neutrophilic granulocytes, which can be measured as luminol-potentiated chemiluminescence [McPhail L C, Strum S L, Leone P A and Sozzani S, The neutrophil respiratory burst mechanism. In “Immunology Serie” 1992, 57, 47-76; ed. Coffey R G (Marcel Decker, Inc., New York-Basel-Hong Kong)].
The formation of reactive oxygen species determined by means of luminol-potentiated chemiluminescence (5) and the isolation of the PMNL from human blood (6) was carried out essentially as described in (5) and (6): equal-size portions (0.5 ml) of the cell suspension (10^7 cells/ml) were preincubated at 37° C. for 5 min. In the absence or presence of the compounds to be investigated in a buffer solution containing 140 mM NaCl, 5 mM KCl, 10 mM HEPES, 1 mM CaCl2/MgCl2, 1 mg/ml of glucose, 0.05% (w/v) BSA (bovine serum albumin), 10 μM luminol and 4 μM microperoxidase. […]
as §3

T1 sequence (Q14432 whole entry): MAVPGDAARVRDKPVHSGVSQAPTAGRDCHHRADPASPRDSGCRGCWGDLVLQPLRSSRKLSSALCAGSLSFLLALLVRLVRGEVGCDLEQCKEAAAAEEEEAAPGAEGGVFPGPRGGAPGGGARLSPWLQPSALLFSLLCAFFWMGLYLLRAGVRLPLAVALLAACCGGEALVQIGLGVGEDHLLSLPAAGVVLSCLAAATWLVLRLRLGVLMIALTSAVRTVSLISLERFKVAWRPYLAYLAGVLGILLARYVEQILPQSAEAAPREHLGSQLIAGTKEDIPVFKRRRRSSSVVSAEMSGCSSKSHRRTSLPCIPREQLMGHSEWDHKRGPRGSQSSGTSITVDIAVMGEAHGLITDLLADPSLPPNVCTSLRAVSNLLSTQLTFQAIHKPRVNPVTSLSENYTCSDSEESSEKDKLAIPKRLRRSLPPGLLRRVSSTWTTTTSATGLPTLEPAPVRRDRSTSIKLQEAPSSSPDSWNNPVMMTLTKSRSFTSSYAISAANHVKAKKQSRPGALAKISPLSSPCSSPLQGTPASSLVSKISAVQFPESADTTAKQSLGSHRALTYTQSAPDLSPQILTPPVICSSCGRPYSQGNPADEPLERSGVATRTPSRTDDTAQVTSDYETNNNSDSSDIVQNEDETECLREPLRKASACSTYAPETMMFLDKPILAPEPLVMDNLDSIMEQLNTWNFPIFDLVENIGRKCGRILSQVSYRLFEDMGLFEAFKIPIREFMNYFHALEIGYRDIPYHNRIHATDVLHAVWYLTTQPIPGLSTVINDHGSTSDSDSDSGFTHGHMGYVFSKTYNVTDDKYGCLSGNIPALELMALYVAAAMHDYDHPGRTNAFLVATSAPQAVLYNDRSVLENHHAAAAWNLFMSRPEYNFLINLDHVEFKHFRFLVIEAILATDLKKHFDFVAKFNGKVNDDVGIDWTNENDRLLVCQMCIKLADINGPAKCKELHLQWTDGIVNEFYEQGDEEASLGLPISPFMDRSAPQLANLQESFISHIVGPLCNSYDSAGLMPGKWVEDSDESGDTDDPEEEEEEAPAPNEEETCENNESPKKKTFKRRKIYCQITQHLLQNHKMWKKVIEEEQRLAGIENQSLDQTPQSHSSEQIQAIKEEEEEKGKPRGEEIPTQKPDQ

IC50 [1] [nM]	IC50 [2] [nM]	IC50 [3] [nM]	PDE1 inhibitory concentration as -log IC50 [4]	melting point [°C]	PDE4 inhibitory concentration as -log IC50 [5]	IC50 [6] [nM]	Structure (SMILES)
52.5	407	182	5.14	207 to 219	9.00	–	CCOc1cc2c(cc1OC)C(c1ccc(NS(=O)(=O)c3ccc(C)cc3)cc1)=N[C@H]1CCN(C)C[C@@H]21 (relative stereo) [Compound 2, (−)-cis-9-Ethoxy-8-methoxy-2-methyl-6-[4-(p-toluenesulfonamido)-phenyl]-1,2,3,4,4a,10b-hexahydro-benzo[c][1,6]naphthyridine]
95.5	813	2340	4.75	–	7.20	851	COc1cc2c(cc1OC)[C@@H]1CN(C)CC[C@@H]1N=C2c1ccc(NS(=O)(=O)c2ccc(C)cc2)cc1 (relative stereo) [Tolafentrine, (−)-cis-8,9-Dimethoxy-2-methyl-6-[4-(p-toluenesulfonamido)-phenyl]-1,2,3,4,4a,10b-hexahydrobenzo[c][1,6]naphthyridine, reference compound]
79.4	1100	91.2	<5	267 to 268	8.60	40.7	CCOc1cc2c(cc1OCC)[C@@H]1CN(C)CC[C@@H]1N=C2c1ccc(NS(=O)(=O)c2ccc(C)cc2)cc1 (relative stereo) [Compound 1, (−)-cis-8,9-Diethoxy-2-methyl-6-[4-(p-toluenesulfonamido)-phenyl]-1,2,3,4,4a,10b-hexahydro-benzo[c][1,6]naphthyridine]
